Molecular target: T1, Purified ERAP1 (37-941)-10His (ERAP1) (Homo sapiens, UniProt Q9NZ08)
T1 construct: Purified ERAP1 (37-941)-10His (ERAP1)
Experiment: ERAP1 mediated hydrolysis of an amide substrate (10-mer inhibition assay), biochemical system
Conditions: 10-mer substrate, 23° C., 1 h, excitation 279 nm / emission 355 nm; read-out: IC50 vs Decapeptide WRVYEKC(Dnp)ALK-acid (where Dnp is Dinitrophenyl maleimide) (10-mer)
Description: However, as ERAP1 hydrolyses the N-terminal amide bond and tryptophan is released this internal quenching is lost and the reaction is monitored by the increase in tryptophan fluorescence over the course of the assay. For the purposes of this application this assay is referred to as the “10mer inhibition assay” and compound potencies are calculated and expressed as IC50 as would be familiar to a person skilled in the art.
Biological Assay 1: ERAP1 Mediated Hydrolysis of an Amide Substrate Measured in a Biochemical System
Decapeptide WRVYEKC(Dnp)ALK-acid (where Dnp is Dinitrophenyl maleimide) (10-mer) L-Leucine 7-amido-4-methylcoumarin (L-AMC)
12.5 μL ERAP1 enzyme in 1×AB was combined with 250 nL test compound in DMSO. […] For detection, plates were read at excitation 365 nm and emission 442 nm (L-AMC) or excitation 279 nm and emission 355 nm (10-mer).

T1 sequence (Q9NZ08 37-941): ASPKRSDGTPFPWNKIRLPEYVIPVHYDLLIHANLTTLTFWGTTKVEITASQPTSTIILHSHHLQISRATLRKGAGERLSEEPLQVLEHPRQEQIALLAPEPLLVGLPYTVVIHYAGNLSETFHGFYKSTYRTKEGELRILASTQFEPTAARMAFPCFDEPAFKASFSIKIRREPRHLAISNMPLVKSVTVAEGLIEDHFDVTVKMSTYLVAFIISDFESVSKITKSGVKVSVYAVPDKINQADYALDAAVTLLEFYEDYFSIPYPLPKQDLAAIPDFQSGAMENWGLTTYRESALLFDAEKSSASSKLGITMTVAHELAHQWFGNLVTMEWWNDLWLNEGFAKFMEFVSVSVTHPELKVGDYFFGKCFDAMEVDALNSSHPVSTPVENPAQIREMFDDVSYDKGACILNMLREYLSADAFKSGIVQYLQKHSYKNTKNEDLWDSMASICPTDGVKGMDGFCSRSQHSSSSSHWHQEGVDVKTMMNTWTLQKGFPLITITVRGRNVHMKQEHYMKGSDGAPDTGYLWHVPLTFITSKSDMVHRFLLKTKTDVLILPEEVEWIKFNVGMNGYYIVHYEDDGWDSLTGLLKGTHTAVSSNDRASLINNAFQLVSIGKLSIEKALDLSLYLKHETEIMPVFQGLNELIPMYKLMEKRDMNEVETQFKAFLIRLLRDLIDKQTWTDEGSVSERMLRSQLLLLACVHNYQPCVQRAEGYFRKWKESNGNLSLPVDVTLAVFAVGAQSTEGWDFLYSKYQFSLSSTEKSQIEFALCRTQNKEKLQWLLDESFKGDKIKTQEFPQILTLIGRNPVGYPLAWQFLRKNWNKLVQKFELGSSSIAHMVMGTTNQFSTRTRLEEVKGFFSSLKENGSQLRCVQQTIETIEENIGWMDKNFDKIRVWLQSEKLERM

| Structure (SMILES) | IC50 [nM] |
| --- | --- |
| CC(C)c1ccc(C(=O)O)cc1S(=O)(=O)Nc1cc(C(F)(F)F)ccc1N1CCCCCC1 [Example 55, 3-(N-(2-(azepan-1-yl)-5-(trifluoromethyl)phenyl)sulfamoyl)-4-isopropylbenzoic acid] | < 500 |
| O=C(O)c1ccc(-n2cccn2)c(S(=O)(=O)Nc2cc(C(F)(F)F)ccc2N2CCCCC2)c1 [Example 271, 3-(N-(2-(piperidin-1-yl)-5-(trifluoromethyl)phenyl)sulfamoyl)-4-(pyrazol-1-yl)benzoic acid] | < 5000 |
| COc1ccc(C(=O)O)cc1S(=O)(=O)Nc1cc(C(F)(F)F)ccc1N1CCCC(F)(F)C1 [Example 9, 3-(N-(2-(3,3-difluoropiperidin-1-yl)-5-(trifluoromethyl)phenyl)sulfamoyl)-4-methoxybenzoic acid] | < 500 |
| COc1ccc(C(=O)O)cc1S(=O)(=O)Nc1cc(C(F)F)ccc1N1CCCCC1 [Example 212, 3-(N-(5-(difluoromethyl)-2-(piperidin-1-yl)phenyl)sulfamoyl)-4-methoxybenzoic acid] | < 500 |
| O=C(O)c1ccc(C2CC2)c(S(=O)(=O)Nc2cc(-n3cnnn3)ccc2N2CCCCC2)c1 [Example 323, 4-cyclopropyl-3-(N-(2-(piperidin-1-yl)-5-(tetrazol-1-yl)phenyl)sulfamoyl)benzoic acid] | < 500 |
| COc1ccc(C(=O)O)cc1S(=O)(=O)Nc1cc(C(F)(F)F)ccc1N1CCCCC1=O [Example 41, 4-methoxy-3-(N-(2-(2-oxopiperidin-1-yl)-5-(trifluoromethyl)phenyl)sulfamoyl)benzoic acid] | < 500 |
| O=C(O)c1ccc(O)c(S(=O)(=O)Nc2cc(C(F)(F)F)ccc2N2CCCCC2)c1 [Example 161, 4-hydroxy-3-(N-(2-(piperidin-1-yl)-5-(trifluoromethyl)phenyl)sulfamoyl)benzoic acid] | < 500 |
| COc1ccc(C(=O)O)cc1S(=O)(=O)Nc1cc(C(F)(F)F)ccc1N1CCC2(CCO2)CC1 [Example 186, 3-(N-(2-(1-oxa-7-azaspiro[3.5]nonan-7-yl)-5-(trifluoromethyl)phenyl)sulfamoyl)-4-methoxybenzoic acid] | < 500 |
| COc1ccc(C(=O)O)cc1S(=O)(=O)Nc1cc(C(F)(F)F)ccc1N1CC(O)(C2CC2)C1 [Example 21, 3-(N-(2-(3-cyclopropyl-3-hydroxyazetidin-1-yl)-5-(trifluoromethyl)phenyl)sulfamoyl)-4-methoxybenzoic acid] | > 5000 |
| O=C(O)c1cc(F)cc(S(=O)(=O)Nc2cc(C(F)(F)F)ccc2N2CCCCC2)c1 [Example 59, 3-fluoro-5-(N-(2-(piperidin-1-yl)-5-(trifluoromethyl)phenyl)sulfamoyl)benzoic acid] | < 500 |
| [2H]C1([2H])C([2H])([2H])C1([2H])c1ccc(C(=O)O)cc1S(=O)(=O)Nc1cc(C#N)ccc1N1CCCCC1 [Example 335, 3-(N-(5-cyano-2-(piperidin-1-yl)phenyl)sulfamoyl)-4-(cyclopropyl-d5)benzoic acid] | < 500 |
| COc1ccc(C(=O)O)cc1S(=O)(=O)Nc1cc(C#N)ccc1N1CCCCC1 [Example 182, 3-(N-(5-cyano-2-(piperidin-1-yl)phenyl)sulfamoyl)-4-methoxybenzoic acid] | < 500 |
| COc1ccc(C(=O)O)cc1S(=O)(=O)Nc1cc(C(F)(F)F)ccc1N1CCC(C#N)CC1 [Example 237, 3-(N-(2-(4-cyanopiperidin-1-yl)-5-(trifluoromethyl)phenyl)sulfamoyl)-4-methoxybenzoic acid] | < 500 |
| COc1ccc(C(=O)O)cc1S(=O)(=O)Nc1ccc(Cl)cc1N1CCCCC1 [Example 65, 3-(N-(4-chloro-2-(piperidin-1-yl)phenyl)sulfamoyl)-4-methoxybenzoic acid] | < 500 |
| COc1ccc(C(=O)O)cc1S(=O)(=O)Nc1cc(C(F)(F)F)ccc1N1[C@@H]2CC[C@H]1C[C@@H](O)C2 [Example 23, 3-(N-(2-(endo-3-hydroxy-8-azabicyclo [3.2.1]octan-8-yl)-5-(trifluoromethyl)phenyl)sulfamoyl)-4-methoxybenzoic acid] | > 5000 |
| COc1ccc(C(=O)O)cc1S(=O)(=O)Nc1cc(C(F)(F)F)ccc1N1CCCC1c1cc(C)no1 (centres unmarked) [Example 46, 4-methoxy-3-(N-(2-(2-(3-methylisoxazol-5-yl)pyrrolidin-1-yl)-5-(trifluoromethyl)phenyl)sulfamoyl)benzoic acid] | < 5000 |
| N#CC1CCN(c2ccc(C(F)(F)F)cc2NS(=O)(=O)c2cc(C(=O)O)ccc2C2CC2)CC1 [Example 315, 3-(N-(2-(4-cyanopiperidin-1-yl)-5-(trifluoromethyl)phenyl)sulfamoyl)-4-cyclopropylbenzoic acid] | < 500 |
| COc1ccc(C(=O)O)cc1S(=O)(=O)Nc1cc(C(F)(F)F)ccc1N1CCC(C)(O)C1 (centres unmarked) [Example 20, 3-(N-(2-(3-hydroxy-3-methylpyrrolidin-1-yl)-5-(trifluoromethyl)phenyl)sulfamoyl)-4-methoxybenzoic acid] | < 5000 |
| COc1ccc(C(=O)O)cc1S(=O)(=O)Nc1cc(C(F)(F)F)ccc1N1CCC(O)C(F)(F)C1 (centres unmarked) [Example 14, 3-(N-(2-(3,3-difluoro-4-hydroxypiperidin-1-yl)-5-(trifluoromethyl)phenyl)sulfamoyl)-4-methoxybenzoic acid] | < 500 |

Further lines, results first:

| IC50 [nM] | Structure (SMILES) |
| --- | --- |
| < 500 | CCc1ccc(C(=O)O)cc1S(=O)(=O)Nc1cc(C#N)ccc1N1CCCC(F)(F)C1 [Example 234, 3-(N-(5-cyano-2-(3,3-difluoropiperidin-1-yl)phenyl)sulfamoyl)-4-ethylbenzoic acid] |
| < 500 | N#Cc1ccc(N2CCCCC2)c(NS(=O)(=O)c2cc(C(=O)O)ccc2C2CC2)c1 [Example 295, 3-(N-(5-cyano-2-(piperidin-1-yl)phenyl)sulfamoyl)-4-cyclopropylbenzoic acid] |
| < 500 | O=C(O)c1ccc(C2CC2)c(S(=O)(=O)Nc2cc(C(F)(F)F)ccc2N2CCCCC2)c1 [Example 267, 4-cyclopropyl-3-(N-(2-(piperidin-1-yl)-5-(trifluoromethyl)phenyl)sulfamoyl)benzoic acid] |
| < 500 | CCc1ccc(C(=O)O)cc1S(=O)(=O)Nc1cc(-c2cnoc2C)c(C)cc1N1CCCCC1 [Example 303, 4-ethyl-3-(N-(4-methyl-5-(5-methylisoxazol-4-yl)-2-(piperidin-1-yl)phenyl)sulfamoyl)benzoic acid] |
| < 500 | COc1ccc(C(=O)O)cc1S(=O)(=O)Nc1cc(C(F)(F)F)ccc1N1CCC[C@H](F)C1 [Example 209, (S)-3-(N-(2-(3-fluoropiperidin-1-yl)-5-(trifluoromethyl)phenyl)sulfamoyl)-4-methoxybenzoic acid] |
| < 500 | CCc1ccc(C(=O)O)cc1S(=O)(=O)Nc1cc(C(F)(F)F)ccc1N1C[C@H](C)C[C@H](C)C1 [Example 30] |
| < 5000 | COc1ccc(C(=O)O)cc1S(=O)(=O)Nc1cc(C(F)(F)F)ccc1N1CCC(O)C1 (centres unmarked) [Example 36, 3-(N-(2-(3-hydroxypyrrolidin-1-yl)-5-(trifluoromethyl)phenyl)sulfamoyl)-4-methoxybenzoic acid] |
| < 500 | CS(=O)(=O)c1ccc(N2CCC(F)(F)CC2)c(NS(=O)(=O)c2cc(C(=O)O)ccc2C2CC2)c1 [Example 309, 4-cyclopropyl-3-(N-(2-(4,4-difluoropiperidin-1-yl)-5-(methylsulfonyl)phenyl)sulfamoyl)benzoic acid] |
| < 500 | CCc1ccc(C(=O)O)cc1S(=O)(=O)Nc1cc(C(F)(F)F)ccc1N1CCC(F)CC1 [Example 205, 4-ethyl-3-(N-(2-(4-fluoropiperidin-1-yl)-5-(trifluoromethyl)phenyl)sulfamoyl)benzoic acid] |
| < 500 | CCc1ccc(C(=O)O)cc1S(=O)(=O)Nc1cc(C(F)(F)F)ccc1N1CCCCC1 [Example 1, 4-Ethyl-3-(N-(2-(piperidin-1-yl)-5-(trifluoromethyl)phenyl)sulfamoyl)benzoic acid] |
| < 5000 | COc1ccc(C(=O)O)cc1S(=O)(=O)Nc1cc(C(F)(F)F)ccc1N1CC[C@H](O)C1 [Example 178, (S)-3-(N-(2-(3-hydroxypyrrolidin-1-yl)-5-(trifluoromethyl)phenyl)sulfamoyl)-4-methoxybenzoic acid] |
| < 500 | CCc1ccc(C(=O)O)cc1S(=O)(=O)Nc1cc(S(C)(=O)=O)ccc1N1CCC[C@@H](F)C1 [Example 262, I-4-ethyl-3-(N-(2-(3-fluoropiperidin-1-yl)-5-(methylsulfonyl)phenyl)sulfamoyl)benzoic acid] |
| < 500 | CCc1ccc(C(=O)O)cc1S(=O)(=O)Nc1cc(S(C)(=O)=O)ccc1N1CCC(F)CC1 [Example 317, 4-ethyl-3-(N-(2-(4-fluoropiperidin-1-yl)-5-(methylsulfonyl)phenyl)sulfamoyl)benzoic acid] |
| < 500 | COc1ccc(C(=O)O)cc1S(=O)(=O)Nc1cc(Cl)ccc1N1CCCCC1 [Example 66, 3-(N-(5-chloro-2-(piperidin-1-yl)phenyl)sulfamoyl)-4-methoxybenzoic acid] |
| < 500 | CCc1ccc(C(=O)O)cc1S(=O)(=O)Nc1cc(C(F)(F)F)ccc1N1CCC[C@H](O)C1 [Example 250, (S)-4-ethyl-3-(N-(2-(3-hydroxypiperidin-1-yl)-5-(trifluoromethyl)phenyl)sulfamoyl)benzoic acid] |
| < 500 | CCc1ccc(C(=O)O)cc1S(=O)(=O)Nc1cc(-n2cnnn2)ccc1N1CCCCC1 [Example 242, 4-ethyl-3-(N-(2-(piperidin-1-yl)-5-(tetrazol-1-yl)phenyl)sulfamoyl)benzoic acid] |
